System: A431/CCKBR-tumor bearing nude mice
Experiment: not given
Settings: co-injection of 60 nmol minigastrin

| Molecule | [177Lu]Lu-PP-F11N kidney uptake with blocking | [177Lu]Lu-PP-F11N uptake in the tumor and stomach with blocking |
| --- | --- | --- |
| LEEEEEAYGWMDF [minigastrin] | not affected | reduced |

System: A431/CCKBR cells
Experiment: CellTiter 96 AQueous (MTS) proliferation assay
Format: cell-based, human
Settings: not given

| Molecule | Proliferation [A570] |
| --- | --- |
| COCc1cc(O)c(O)c(O)c1-c1c(COC)cc(O)c(O)c1O [2,2',3,3',4,4'-Hexahydroxy-1,1'-biphenyl-6,6'-dimethanol dimethyl ether] | 0.98 |
| OC[C@H]1O[C@@H](n2cnc3cc(Cl)c(Cl)cc32)[C@H](O)[C@@H]1O [5,6-dichloro-1-β-D-ribofuranosylben zimidazole] | 0.99 |
| CCCCCCCCCCCCC/C=C/[C@@H](O)[C@@H](N)CO [D-erythro-Sphingosine] | 0.96 |
| C/C(O)=C(\C#N)C(=O)Nc1cc(Br)ccc1Br [LFM-A13] | 0.93 |
| O.O.O=c1c(O)c(-c2ccc(O)c(O)c2)oc2cc(O)cc(O)c12 [Quercetin·2H2O] | 1.03 |
| CC[C@H](CO)Nc1nc(NCc2ccccc2)c2ncn(C(C)C)c2n1 [Roscovi tine] | 0.91 |
| C[S+]([O-])c1ccc(-c2nc(-c3ccncc3)c(-c3ccc(F)cc3)[nH]2)cc1 (stereo not shown) [SB-203580] | 0.95 |
| N#C/C(=C\c1ccc(O)c(O)c1)C(N)=S [TYRPHOSTIN 47] | 0.98 |
| CC1=C(O)C(=O)[C@@H]2O[C@@H]2C1=O [Terreic acid] | 1.06 |

Same assay, conditions: 10 μM kinase inhibitor; MTS absorbance at 570 nm, reference 650 nm; mean of triplicate

| Molecule | Proliferation [A570] |
| --- | --- |
| CCCCCCCCCCCCCCCC(=O)OC(CC(=O)[O-])C[N+](C)(C)C (racemic) [Palmitoyl-DL-carnitine] | 0.91 |
| Nc1ncc2[nH]cnc2n1 [2-Am inopurine] | 0.96 |
| O=C(O)c1cc(NCc2cc(O)ccc2O)ccc1O [2-Hydroxy-5-(2,5-dihydroxybenzylamino)benzoi c acid] | 1.01 |
| Nc1ncnc2c1c(I)cn2[C@@H]1O[C@H](CO)[C@@H](O)[C@H]1O [5-Iodotubericidin] | 1.15 |
| N#CC(C#N)=Cc1ccc([N+](=O)[O-])c(O)c1 [AG-1 26] | 1.01 |
| N#CC(=Cc1ccc2[nH]ccc2c1)C(N)=C(C#N)C#N [AG-3 70] | 0.97 |
| N#C/C(=C\c1ccc(O)c(O)c1)C(=O)NCc1ccccc1 [AG-4 90] | 1.03 |
| N#C/C(=C\c1ccc(O)c(O)c1)C(=O)Nc1ccccc1 [AG-4 94] | 0.97 |
| COc1cc(/C=C(\C#N)C(N)=O)cc(CSc2nc3ccccc3s2)c1O [AG-8 25] | 0.80 |
| CC(C)(C)c1cc(/C=C(\C#N)C(N)=S)cc(C(C)(C)C)c1O [AG-8 79] | 0.80 |
| COc1cc2ncc(-c3ccccc3)nc2cc1OC [AG-1296] | 0.94 |
| O=c1cc(-c2ccc(O)cc2)oc2cc(O)cc(O)c12 [Apigenin] | 0.90 |
| Cc1ccc(S(=O)(=O)/C=C/C#N)cc1 [BAY 11-7082] | 1.14 |
| CC(C)c1cnc(NC(=O)Cc2ccccc2)s1 [BML-259] | 1.09 |
| O=c1c(-c2ccc(O)cc2)coc2cc(O)ccc12 [Daidzein] | 0.92 |
| COC(=O)/C=C/c1cc(O)ccc1O [Erbstatin analog] | 1.12 |
| CN(C)CCCn1cc(C2=C(c3c[nH]c4ccccc34)C(=O)NC2=O)c2ccccc21 [GF 109203X] | 0.95 |
| O=C1Nc2ccc(I)cc2/C1=C/c1cc(Br)c(O)c(Br)c1 [GW 5074] | 0.93 |
| O=c1c(-c2ccc(O)cc2)coc2cc(O)cc(O)c12 [Genistein] | 0.95 |
| CC1CNCCN1S(=O)(=O)c1cccc2cnccc12.Cl.Cl (stereo not shown) [H-7·2HCl] | 0.98 |
| CNCCNS(=O)(=O)c1cccc2cnccc12 [H-8] | 0.99 |
| Cl.NCCNS(=O)(=O)c1cccc2cnccc12 [H-9·HCl] | 1.03 |

| Molecule | Proliferation [A570] |
| --- | --- |
| Cl.Cl.O=S(=O)(NCCNC/C=C/c1ccc(Br)cc1)c1cccc2cnccc12 [H-89·2HCl] | 0.97 |
| Cl.NC(N)=NCCNS(=O)(=O)c1cccc2cnccc12 [HA-1004·HCl] | 1.05 |
| Cl.Cl.O=S(=O)(c1cccc2cnccc12)N1CCCNCC1 [HA-1077·2HCl] | 0.99 |
| O=P(O)(O)C(O)c1ccc2ccccc2c1 (stereo not shown) [Hydroxy-2-naphthalenylmethylphosp honic acid] | 1.00 |
| Cc1cc(O)c2c(=O)c3c(O)cc(O)c4c5c(O)cc(O)c6c(=O)c7c(O)cc(C)c8c1c2c(c34)c(c78)c65 [Hypericin] | 0.93 |
| O=C1Nc2ccccc2/C1=C1/Nc2ccccc2/C1=N\O [Indirubin-3'-monooxime] | 0.87 |
| O=C1Nc2ccccc2/C1=C1/Nc2ccccc2C1=O [Indirubin] | 1.09 |
| Cn1cnc2nc(NCCO)nc(NCc3ccccc3)c21 [Iso-olomoucine] | 0.96 |
| CN([C@@H](Cc1ccc(OS(=O)(=O)c2cccc3cnccc23)cc1)C(=O)N1CCN(c2ccccc2)CC1)S(=O)(=O)c1cccc2cnccc12 [KN-62] | 0.82 |
| COc1ccc(S(=O)(=O)N(CCO)c2ccccc2CN(C)C/C=C/c2ccc(Cl)cc2)cc1 [KN-93] | 0.92 |
| O=C1Cc2c([nH]c3ccc(Br)cc23)-c2ccccc2N1 [Kenpaullone] | 0.99 |
| O=c1cc(N2CCOCC2)oc2c(-c3ccccc3)cccc12 [LY 294002] | 0.92 |
| O=C(O)c1cc(N(Cc2ccccc2O)Cc2cc(O)ccc2O)ccc1O [Lavendustin A] | 1.15 |
| Cl.O=S(=O)(c1cccc2c(I)cccc12)N1CCCNCC1 [ML-7·HCl] | 0.95 |
| Cl.O=S(=O)(c1cccc2c(Cl)cccc12)N1CCCNCC1 [ML-9·HCl] | 0.94 |
| CC(C)n1cnc2c(NCc3ccccc3)nc(NCCO)nc21 [N9-isopropyl-olomoucine] | 0.93 |
| Cn1cnc2c(NCc3ccccc3)nc(NCCO)nc21 [Olomoucine] | 0.98 |
| COc1cccc(-c2cc(=O)c3ccccc3o2)c1N [PD-98059] | 1.01 |
| CO[C@@H]1[C@H](N(C)C(=O)c2ccccc2)C[C@H]2O[C@]1(C)n1c3ccccc3c3c4c(c5c6ccccc6n2c5c31)C(=O)NC4 [PKC-4 12] | 0.78 |
| Cc1ccc(-c2nn(C(C)(C)C)c3ncnc(N)c23)cc1 [PP1] | 0.80 |
| CC(C)(C)n1nc(-c2ccc(Cl)cc2)c2c(N)ncnc21 [PP2] | 0.86 |
| Oc1cc(O)cc(/C=C/c2ccc(O)c(O)c2)c1 [Piceatannol] | 1.02 |

| Molecule | Proliferation [A570] |
| --- | --- |
| CS(=O)(=O)O.Cn1cc(C2=C(c3cn(CCCSC(=N)N)c4ccccc34)C(=O)NC2=O)c2ccccc21 [Ro 31-8220 mesylate] | 0.51 |
| CC(=O)c1c(O)c(C)c(O)c(Cc2c(O)c3c(c(C(=O)/C=C/c4ccccc4)c2O)OC(C)(C)C=C3)c1O [Rottle rin] | 0.64 |
| Oc1ccc(-c2nc(-c3ccncc3)c(-c3ccc(F)cc3)[nH]2)cc1 [SB-202190] | 1.02 |
| Oc1c2ccccc2c2c3c(cccc13)N=N2 [SP 600125] | 0.77 |
| CC(C)c1cc(/C=C(\C#N)C(=O)NCCCc2ccccc2)cc(C(C)C)c1O [SU1498] | 0.98 |
| CN(C)c1ccc(/C=C2\C(=O)Nc3ccccc32)cc1 [SU 4312] | 0.97 |
| CN[C@@H]1C[C@H]2O[C@@](C)([C@@H]1OC)n1c3ccccc3c3c4c(c5c6ccccc6n2c5c31)C(=O)NC4 [Staurosporine] | 0.51 |
| CC(C)(C)c1cc(C=C(C#N)C#N)cc(C(C)(C)C)c1O [TYRPHOSTIN 9] | 0.62 |
| N#CC(C#N)=Cc1ccc(O)c(O)c1 [TYRPHOSTIN 23] | 1.07 |
| N#CC(C#N)=Cc1cc(O)c(O)c(O)c1 [TYRPHOSTIN 25] | 1.12 |
| N#C/C(=C\c1ccc(O)c(O)c1)C(N)=O [TYRPHOSTIN 46] | 1.04 |
| N#CC(C#N)=C(N)/C(C#N)=C/c1cc(O)c(O)c(O)c1 [TYRPHOSTIN 51] | 1.05 |
| N#CC(C#N)=Cc1cc(O)c(O)c([N+](=O)[O-])c1 [TYRPHOSTIN AG 1288] | 0.97 |
| Cc1cc2ncc(-c3ccccc3)nc2cc1C [TYRPHOSTIN AG 1295] | 0.94 |
| COc1cc2ncnc(Nc3cccc(Cl)c3)c2cc1OC [TYRPHOSTIN AG 1478] | 0.72 |
| N#CC(=C(/N)Sc1ccccc1N)/C(C#N)=C(/N)Sc1ccccc1N [U-0126] | 0.87 |
| COC[C@H]1OC(=O)c2coc3c2[C@@]1(C)C1=C(C3=O)[C@@H]2CCC(=O)[C@@]2(C)C[C@H]1OC(C)=O [Wortmannin] | 0.86 |
| C[C@@H](N)[C@H]1CC[C@H](C(=O)Nc2ccncc2)CC1.Cl.Cl [Y-27632·2HCl] | 1.02 |
| Cc1ccc(NC(=O)c2cccc(N(C)C)c2)cc1NC(=O)c1ccc(O)cc1 [ZM 336372] | 0.87 |
| C=CC(=O)c1ccc2ccccc2c1 [ZM 449829] | 0.98 |
| BML-265 | 0.78 |

Source: article PMC7532663, “Pharmacological inhibition of mTORC1 increases CCKBR-specific tumor uptake of radiolabeled minigastrin analogue [^177Lu]Lu-PP-F11N” (Theranostics, 2020)
